Data: patent US11180510B2, “Xanthine derivatives and uses thereof as inhibitors of bromodomains of BET proteins” (Centre national de la recherche scientifique, priority 2017, dated 2021)
Where two headings read alike, the source gives them in different places. Blank lines part the entries; values can stand above or below the molecule they belong to.

Experiments:
c-Myc = settings: known inhibitors, background statement; cited from earlier work
[1] = tested on: BD2 domain of BRD2 and BRD3; settings: cited from earlier work
acute leukemia = settings: phase I study; cited from earlier work
Brd2(BD1) = molecular target: T1, Brd2(BD1) (Homo sapiens, UniProt P25440); test: HTRF BET selectivity profile, Brd2(BD1); type: binding
T1 construct: GST tagged bromodomain proteins were purchased from BPS Bioscience; purchased BPS Bioscience

Brdt(BD1) = molecular target: T2, Brdt(BD1) (Homo sapiens, UniProt Q58F21); test: HTRF BET selectivity profile, Brdt(BD1); type: binding
T2 construct: GST tagged bromodomain proteins were purchased from BPS Bioscience; purchased BPS Bioscience
In short: (§1)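 HTRF peptide-displacement assay with GST-tagged bromodomains and histone peptide, 0.5% final DMSO, incubated 3 h, 6 h or overnight at room temperature or 4 °C depending on bromodomain. 665/620 nm ratio read; inhibition scaled between DMSO and no-peptide controls, IC50 in triplicate.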

Brd4(BD2) = molecular target: T3, Brd4(BD2) (Homo sapiens, UniProt O60885); test: HTRF BET selectivity profile, Brd4(BD2); type: binding
T3 construct: GST tagged bromodomain proteins were purchased from BPS Bioscience; purchased BPS Bioscience
In short: as §1

Brd3(BD2) = molecular target: T4, Brd3(BD2) (Homo sapiens, UniProt Q15059); test: HTRF BET selectivity profile, Brd3(BD2); type: binding
T4 construct: GST tagged bromodomain proteins were purchased from BPS Bioscience; purchased BPS Bioscience
In short: as §1

Brd2(BD2) = molecular target: T5, Brd2(BD2) (Homo sapiens, UniProt P25440); test: HTRF BET selectivity profile, Brd2(BD2); type: binding; settings: read-out: Brd2(BD2) IC50
T5 construct: GST tagged bromodomain proteins were purchased from BPS Bioscience; purchased BPS Bioscience

ATAD2 = molecular target: T6, ATAD2 (Homo sapiens, UniProt Q6PL18); test: HTRF selectivity profile, ATAD2 (non-BET bromodomain control); type: binding
T6 construct: GST tagged bromodomain proteins were purchased from BPS Bioscience; purchased BPS Bioscience
T6 sequence (Q6PL18 980-1092 limits assumed): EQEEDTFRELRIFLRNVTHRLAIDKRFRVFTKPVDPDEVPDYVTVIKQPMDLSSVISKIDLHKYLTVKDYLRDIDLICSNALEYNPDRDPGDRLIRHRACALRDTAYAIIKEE
Method: HTRF assays were performed in white 384 Well Small Volume™ HiBase Polystyrene Microplates (Greiner) with a total working volume of 20 μL. Compounds were dispensed, with 100 nL per well (0.5% final DMSO), from a concentration stock of 10 mM in 100% DMSO and with serial DMSO dilutions, using an Echo® 550 robot from the Access Labcyte platform (Labcyte) and based on the transfer of liquid by acoustic wave. Then, 19.5 μL of buffer is added, using a Multidrop Combi (Thermo Fisher Scientific). […] HTRF signals were measured, after a final incubation (3 h or 6 h or overnight at room temperature or 4° C., according to the bromodomain), using a PHERAstar FS (BMG Labtech) with an excitation filter at 337 nm and fluorescence wavelength measurement at 620 and 665 nm, an integration delay of 60 μs and an integration time of 500 μs. Results were analyzed with a two-wavelengths signal ratio: [intensity (665 nm)/intensity (620 nm)]*104.
Percentage of inhibition was calculated using the following equation: % inhibition=[(compound signal)−(min signal)]/[(max signal)−(min signal)]*100, where ‘max signal’ is the signal ratio with the compound vehicle alone (DMSO) and ‘min signal’ the signal ratio without peptide. […]

Jurkat cells = test: Cell Titer-Glo cell viability assay, Jurkat; type: cell-based; settings: Homo sapiens, 72 h, mean of three experiments, NA = IC50 > maximal concentration used
Method: (§2) The human leukemia cell line Jurkat (ATCC® TIB-152) and Molm14 was maintained in RPMI-1640 medium or MEMα, respectively and supplemented both with 10% FBS at 37° C. and 5% CO2.
(§3) In antiproliferative assays, compounds were assayed for their growth inhibiting activity towards the described cancer cell lines using the Cell Titer-Glo Luminescent Cell Viability Assay as described by the manufacturer (Promega Corporation). Briefly, 10.000 cells were plated onto 96 well-plates (white with clear bottom (3610, Corning Costar)) in 90 μL media per well immediately before assay. 10 μL of compounds were added at different concentrations (ranging from 50 μM to 6 nM) to each well and cell cultures were incubated 37° C. during 72 h. Vehicle (DMSO) was used as negative control, JQ1 (a pan-BET inhibitor) was used as positive control and all compounds were tested in constant percentage of DMSO (1%). After addition of 50 μL Cell Titer-GLO, shaking 2 minutes and incubating at room temperature 10 minutes, the Luminescence was measured using a Centro luminometer LB960 (Berthold). Dose-response curves were generated and effective dose 50 values (EC50) were calculated using non-linear regression analysis (Graph Pad Prism).

Molm14 cells = test: Cell Titer-Glo cell viability assay, Molm14; type: cell-based; settings: Homo sapiens, MOLM-14, 72 h, mean of three experiments, NA = IC50 > maximal concentration used
Method: as §2, §3

BRD4(BD1) = BRD4(BD1) (Homo sapiens, UniProt O60885); test: HTRF assay, BRD4(BD1)/histone peptide interaction; type: binding; design: made in house; settings: for IC50: HTRF
Brd3(BD1) = Brd3(BD1) (Homo sapiens, UniProt Q15059); test: HTRF BET selectivity profile, Brd3(BD1); type: binding; design: GST tagged bromodomain proteins were purchased from BPS Bioscience; purchased BPS Bioscience
Sequence of Brd3(BD1) (Q15059 34-140 limits assumed): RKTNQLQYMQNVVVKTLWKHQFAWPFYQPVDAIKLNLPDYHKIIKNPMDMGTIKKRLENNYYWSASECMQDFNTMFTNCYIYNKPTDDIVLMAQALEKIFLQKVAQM

T1 sequence (P25440 74-180 limits assumed): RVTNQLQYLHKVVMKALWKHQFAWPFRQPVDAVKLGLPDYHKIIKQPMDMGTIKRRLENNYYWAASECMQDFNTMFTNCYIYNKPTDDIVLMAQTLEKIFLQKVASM
T4 sequence (Q15059 306-415 limits assumed): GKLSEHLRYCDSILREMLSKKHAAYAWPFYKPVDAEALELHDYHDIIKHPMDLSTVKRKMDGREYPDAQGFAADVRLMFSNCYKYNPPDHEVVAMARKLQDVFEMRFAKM
T5 sequence (P25440 344-453 limits assumed): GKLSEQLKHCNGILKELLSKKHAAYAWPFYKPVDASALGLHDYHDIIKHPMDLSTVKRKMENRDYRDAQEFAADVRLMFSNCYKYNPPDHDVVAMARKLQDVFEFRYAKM

SMILES: COc1cc(OC)c2c(=O)[nH]c(-c3cc(C)c(OCCO)c(C)c3)nc2c1 [RVX-208, 2-[4-(2-hydroxyethoxy)-3,5-dimethylphenyl]-5,7-dimethoxy-4(3H)-quinazolinone]
effect on c-Myc expression (c-Myc): no significant effect | bromodomain binding preference [1]: binds preferentially to the BD2 domain of BRD2 and BRD3

SMILES: Cc1sc2c(c1C)C(c1ccc(Cl)cc1)=N[C@@H](CC(=O)Nc1ccc(O)cc1)c1nnc(C)n1-2 [OTX015, (6S)-4-(4-chlorophenyl)-N-(4-hydroxyphenyl)-2,3,9-trimethyl-6H-thieno[3,2-f][1,2,4]triazolo[4,3-a][1,4]diazepine-6-acetamide]
clinical response in acute leukemia (acute leukemia): induced remissions, including complete remission in two patients with refractory disease

SMILES: Cc1sc2c(c1C)C(c1ccc(Cl)cc1)=N[C@@H](CC(=O)OC(C)(C)C)c1nnc(C)n1-2 [JQ1]
effect on c-Myc expression (c-Myc): strong downregulation of c-Myc

IC50 (Brd2(BD1); read-out: Brd2(BD1) IC50): 3.31 µM | Ratio 2-1 vs 2-2 (Brd2(BD1); selectivity Brd2(BD1) vs Brd2(BD2), HTRF IC50): 5 | IC50 (Brdt(BD1)): 19.7 µM | IC50 (Brd4(BD2)): 17.7 µM | IC50 (Brd3(BD2)): 13.5 µM | IC50 (Brd2(BD2)): 16 µM | IC50 (ATAD2): 24.6 µM | IC50 (Jurkat cells): 26.5 µM | IC50 (Molm14 cells): 10.6 µM | IC50 (BRD4(BD1); mean of three experiments, NA = IC50 > 50 μM, read-out: Brd4(8D1) IC50): 0.45 µM | IC50 (BRD4(BD1); triplicates, NA = IC50 > maximal concentration of compound used): 0.45 µM | Ratio 4-1 vs 4-2 (BRD4(BD1); selectivity Brd4(BD1) vs Brd4(BD2), HTRF IC50): 39 | IC50 (Brd3(BD1)): 0.897 µM | Ratio 3-1 vs 3-2 (Brd3(BD1); selectivity Brd3(BD1) vs Brd3(BD2), HTRF IC50): 15
SMILES: CCn1cnc2c1c(=O)[nH]c(=O)n2Cc1ccc(CNS(=O)(=O)c2ccc(-c3ccccc3)cc2)cc1 [Compound 29b]
